Results on twelve compounds are retold here after US20090137499A1, “BENZYLPHENYL GLUCOPYRANOSIDE DERIVATIVE” (priority 2006, published 2009).

The assay concerns the target T1, human SGLT2 (Homo sapiens, UniProt P31639).
T1 construct: expressed in transfected cells
T1 sequence (P31639 1-672): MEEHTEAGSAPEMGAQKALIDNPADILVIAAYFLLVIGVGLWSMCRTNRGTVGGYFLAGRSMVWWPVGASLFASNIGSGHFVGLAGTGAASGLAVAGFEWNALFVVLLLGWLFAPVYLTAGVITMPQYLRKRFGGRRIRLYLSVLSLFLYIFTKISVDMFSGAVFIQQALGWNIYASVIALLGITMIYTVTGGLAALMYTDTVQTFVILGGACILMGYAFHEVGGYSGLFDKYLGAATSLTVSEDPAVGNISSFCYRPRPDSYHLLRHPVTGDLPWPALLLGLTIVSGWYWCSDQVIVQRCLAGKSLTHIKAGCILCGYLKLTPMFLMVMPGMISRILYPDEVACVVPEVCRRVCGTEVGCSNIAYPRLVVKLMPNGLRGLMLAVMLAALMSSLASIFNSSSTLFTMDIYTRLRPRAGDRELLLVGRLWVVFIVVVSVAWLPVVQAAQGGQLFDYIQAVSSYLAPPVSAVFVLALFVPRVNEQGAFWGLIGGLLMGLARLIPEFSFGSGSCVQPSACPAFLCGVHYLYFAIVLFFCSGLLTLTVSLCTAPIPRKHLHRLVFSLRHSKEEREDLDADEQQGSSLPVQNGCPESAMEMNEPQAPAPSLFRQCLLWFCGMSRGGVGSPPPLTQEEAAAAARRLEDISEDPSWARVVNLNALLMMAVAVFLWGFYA
Put plainly: Determination of SGLT2 inhibiting activity using human SGLT2 expressing cell ([14C]-α-methyl-D-glucopyranoside uptake). In kind it is cell-based. To be noted: HEK-SGLT2 cells, 1 mM [14C]-α-methyl-D-glucopyranoside, 37° C., 30 min. The procedure: Determination of SGLT2 Inhibiting Activity Using Human SGLT2 Expressing Cell
1) Preparation of Vector Expressing Human SGLT2 cDNA in Animal Cell
Amplification was performed by PCR using human SGLT2 cDNA clone (Origene: Clone Number, TC303267; GenBank accession number, NM 003041) as a template. The sense oligonucleotide primer for PCR was 5′-[…]-3′ (Primer 3: SEQ ID NO: 3 in the sequence listing),
and the antisense oligonucleotide primer was 5′-[…]-3′ (Primer 4: SEQ ID NO: 4 in the sequence listing). The PCR product was subjected to agarose electrophoresis, then a target DNA fragment was recovered from a single band corresponding to 2037 bases, digested with restriction enzymes HindIII and XhoI, and introduced into the HindIII/XhoI site of vector pCMV-Script (Stratagene) to obtain SGLT2 expressing plasmid pCMV-SGLT2. A HindIII/XhoI fragment was excised from pCMV-SGLT2 and introduced into the BamHI/XhoI site of pENTR1A (Gateway, Invitrogen) to prepare pENTR-SGLT2. Retrovirus vector pLPCX (Clontech) into which Gateway Vector Conversion System Cassette A (Invitrogen) was introduced was used as the destination plasmid to prepare SGLT2 expressing retrovirus vector pLPCX-SGLT2.
2) Establishment of Human SGLT2 Expressing Cell
The retrovirus pLPCX-SGLT2 obtained in 1) was transfected into integrin αvβ3 expressing HEK-293 cells, the cells were treated with antibiotic G418 (brand name, Geneticin: Invitrogen) and puromycin (Clontech) to obtain HEK-SGLT2 cells stably expressing the target vector having resistance. The stably expressing cells were cultured and maintained in DMEM medium containing […] G418, […] puromycin, 3 mM KGT-1075, and 10% FBS.
3) Determination of SGLT2 Inhibiting Activity
HEK-SGLT2 cells were suspended at a density of 10^6 cells/mL in DMEM medium containing 250 mg/mil G418, 1 mg/ml puromycin, and 10% FBS, and 100 μL was seeded in each well of a type 1 collagen-coated 96-well culture plate (Corning). On the following day, the medium was replaced with a sugar uptake buffer (10 mM HEPES [pH 7.5], 5 mM Tris-HCl [pH 7.5], 140 mM NaCl, 2 mM KCl, 1 mM CaCl2, 1 mM MgCl2), and the cells were cultured with 1 mM [^14C]-α-methyl-D-glucopyranoside (0.1 mCi) and a test compound at 37° C. for 30 min, and then washed 3 times with a washing buffer (10 mM HEPES (pH 7.5), 5 mM Tris-HCl (pH 7.5), 140 mM choline chloride, 2 mM KCl, 1 mM CaCl2, 1 mM MgCl2). 100 μL of liquid scintillation cocktail (brand name, Supermix: Perkin-Elmer) was added to each well of the 96-well plate and stirred for 10 min, and then radioactivity was determined with micro β (Perkin-Elmer), a type of liquid scintillation counter. The value obtained by deducting the radioactivity in the presence of an excess amount of an SGLT2 inhibiting compound as the background from each measured value was taken as the sugar uptake activity, the inhibition rate (%) was calculated from the control sugar uptake activity obtained without using a test compound and the sugar uptake activity obtained using a test compound having a predetermined concentration, and the concentrations of the test compound at which the sugar uptake activity was inhibited by 50% were assessed.

One may read the IC50 as the concentration needed to halve the response being measured. A low value points to greater potency. `COc1ccc(Cc2ccc(CO)cc2O[C@@H]2O[C@H]([C@@H](C)O)[C@@H](O)[C@H](O)[C@H]2O)c(F)c1` [Example 82, 2-(2-Fluoro-4-methoxybenzyl)-5-hydroxymethylphenyl 7-deoxy-D-glycero-β-D-gluco-heptopyranoside] had a half-inhibitory concentration (IC50) of 0.0094 µM.
Consider `COc1ccc(Cc2c(OC)cc(CO)cc2O[C@@H]2O[C@H]([C@@H](C)O)[C@@H](O)[C@H](O)[C@H]2O)cc1` [Example 83, 5-Hydroxymethyl-3-methoxy-2-(4-methoxybenzyl)phenyl 7-deoxy-D-glycero-β-D-gluco-heptopyranoside], for which half-maximal inhibition (IC50) was put at 0.039 µM.
Next, `COc1ccc(Cc2c(F)cc(CO)cc2O[C@@H]2O[C@H]([C@@H](C)O)[C@@H](O)[C@H](O)[C@H]2O)cc1` [Example 84, 3-Fluoro-5-hydroxymethyl-2-(4-methoxybenzyl)phenyl 7-deoxy-D-glycero-β-D-gluco-heptopyranoside]: 0.0063 µM; `C[C@@H](O)[C@H]1O[C@@H](Oc2cc(CO)cc(F)c2Cc2ccc(C3CC3)cc2)[C@H](O)[C@@H](O)[C@@H]1O` [Example 88, 2-(4-Cyclopropylbenzyl)-3-fluoro-5-hydroxymethylphenyl 7-deoxy-D-glycero-β-D-gluco-heptopyranoside]: 0.019 µM.
Under `CCc1ccc(Cc2c(C)cc(CO)cc2O[C@@H]2O[C@H]([C@@H](C)O)[C@@H](O)[C@H](O)[C@H]2O)cc1` [Example 89, 2-(4-Ethylbenzyl)-5-hydroxymethyl-3-methylphenyl 7-deoxy-D-glycero-β-D-gluco-heptopyranoside] stands 0.035 µM; under `CCOc1ccc(Cc2ccc(CO)cc2O[C@@H]2O[C@H]([C@@H](C)O)[C@@H](O)[C@H](O)[C@H]2O)cc1` [Example 93, 2-(4-Ethoxybenzyl)-5-hydroxymethylphenyl 7-deoxy-D-glycero-β-D-gluco-heptapyranoside], 0.013 µM; under `COc1ccc(Cc2c(C)cc(CO)cc2O[C@@H]2O[C@H]([C@@H](C)O)[C@@H](O)[C@H](O)[C@H]2O)cc1` [Example 94, 5-Hydroxymethyl-2-(4-methoxybenzyl)-3-methylphenyl 7-deoxy-D-glycero-β-D-gluco-heptopyranoside], 0.011 µM.
Next, `C[C@@H](O)[C@H]1O[C@@H](Oc2cc(CO)cc(Cl)c2Cc2ccc(OC3CC3)cc2)[C@H](O)[C@@H](O)[C@@H]1O` [Example 95, 3-Chloro-2-(4-cyclopropoxybenzyl)-5-hydroxymethyl-phenyl 7-deoxy-D-glycero-β-D-gluco-heptopyranoside]: 0.049 µM.
Consider `Cc1cc(CO)cc(O[C@@H]2O[C@H]([C@@H](C)O)[C@@H](O)[C@H](O)[C@H]2O)c1Cc1ccc(OC2CC2)cc1` [Example 96, 2-(4-Cyclopropoxybenzyl)-5-hydroxymethyl-3-methyl-phenyl 7-deoxy-D-glycero-β-D-gluco-heptopyranoside], for which the 50% inhibitory concentration (IC50) was determined as 0.036 µM.
Next, `Cc1ccc(Cc2c(F)cc(CO)cc2O[C@@H]2O[C@H]([C@@H](C)O)[C@@H](O)[C@H](O)[C@H]2O)cc1` [Example 97, 3-Fluoro-5-hydroxymethyl-2-(4-methylbenzyl)phenyl 7-deoxy-D-glycero-β-D-gluco-heptopyranoside]: 0.011 µM.
On to `Cc1ccc(Cc2ccc(CO)cc2O[C@@H]2O[C@H]([C@@H](C)O)[C@@H](O)[C@H](O)[C@H]2O)cc1` [Example 98, 5-Hydroxymethyl-2-(4-methylbenzyl)phenyl 7-deoxy-D-glycero-β-D-gluco-heptapyranoside], for which the IC50 came to 0.017 µM.
In turn, `C=Cc1cc(CO)cc(O[C@@H]2O[C@H]([C@@H](C)O)[C@@H](O)[C@H](O)[C@H]2O)c1Cc1ccc(OC)cc1` [Example 101, 5-Hydroxymethyl-2-(4-methoxybenzyl)-3-vinyl-phenyl 7-deoxy-D-glycero-β-D-gluco-heptopyranoside] returned an IC50 of 0.136 µM.
